Key:
[1] = tested on: MDR1-MDCK cell monolayers; conditions: dog, MDCK-MDR1, 120 min, 5 μM, pH 7.4
MDR1 (P-gp) = test: MDCK-MDR1 permeability assay, blood-brain-barrier penetration potential; conditions: dog, MDCK-MDR1, pH 7.4, MDCK-MDR1 Efflux Ratio
SMN protein = SMN protein assay (MSD) in SMA patient fibroblasts (GM03813); type: cell-based, human
Method in brief: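 SMA patient fibroblasts GM03813 (7000 cells/well) treated 48 h with compounds from 2.5 μM to 0.6 nM. Lysate SMN protein quantified by MSD immunoassay against an SMN standard curve (1 to 19.5 μg/ml) on each plate, giving absolute amounts.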

MDR1 = test: in vitro; conditions: dog; for Papp A→B at 120 min, 5 μM: MDCK-MDR1, pH 7.4, MDCK-MDR1: Papp A-B (10^−6, cm/s); for Papp B→A at 120 min, 5 μM: MDCK-MDR1, pH 7.4, MDCK-MDR1: Papp B-A (10^−6, cm/s)
SMN FL and SMN Δ7 = test: Quantitative splicing assay (SMN) in SMA patient fibroblasts (GM03813); type: cell-based; conditions: Homo sapiens, Fibroblast; class symbol; read-out: SMN2 Splicing FL EC50 (nM)*
Method: Spinal muscular atrophy (SMA) patient fibroblasts (GM03813, Coriell) are plated in 96-well plates at 50,000 cells/well. […] Treated cells are lysed and cDNA synthesized using the Fast Advanced Cells-to-Ct kit (Thermofisher A35378) according to the manufacturer's instructions. 2 μL of each cDNA are used in qPCR reactions. […] Reactions are run in a Quant Studio 6 qPCR instrument with default settings.

| SMILES | MDCK-MDR1: % Recov A-B (%) [1] | MDCK-MDR1: % Recov B-A (%) [1] | efflux ratio at 120 min, 5 μM (MDR1 (P-gp)) | EC50 (SMN protein) | Papp A→B at 120 min, 5 μM (MDR1) | Papp B→A at 120 min, 5 μM (MDR1) | EC50 (SMN FL and SMN Δ7) |
| --- | --- | --- | --- | --- | --- | --- | --- |
| CN(c1cnc(-c2ccc(-c3cn[nH]c3)cc2O)cn1)[C@H]1C[C@]2(C)CCC(N2)[C@H]1F (single isomer, unassigned) [Compound 28E1] | 66% | 80% | 15 | 0.01 to 15 nM | 3.23 ×10⁻⁶ cm/s | 48.1 ×10⁻⁶ cm/s | 101 to 500 nM |
| CN(c1cnc(-c2cc(F)c(-c3cnn(CF)c3)cc2O)cn1)[C@H]1C[C@@H]2CCC(N2)[C@H]1F (single isomer, unassigned) [Compound 29E2] | 31% | 50% | 3 | 16 to 50 nM | 5.59 ×10⁻⁶ cm/s | 18.3 ×10⁻⁶ cm/s | 51 to 100 nM |
| COc1cc(-c2cc(O)c(-c3cnc(N(C)[C@H]4C[C@@H]5CCC(N5)[C@H]4F)cn3)cc2F)ncn1 (single isomer, unassigned) [Compound 34E2] | 21% | 66% | 2 | 16 to 50 nM | 3.76 ×10⁻⁶ cm/s | 7.23 ×10⁻⁶ cm/s | 51 to 100 nM |
| CN(c1cnc(-c2cc(F)c(-c3cn[nH]c3)cc2O)cn1)[C@@H]1CC2CC[C@H](N2)[C@@H]1F (single isomer, unassigned) [Compound 40E1] | 54% | 75% | 6 | 16 to 50 nM | 6.63 ×10⁻⁶ cm/s | 39.2 ×10⁻⁶ cm/s | 51 to 100 nM |
| CN(c1cnc(-c2cc(F)c(-c3cn[nH]c3)cc2O)cn1)[C@H]1C[C@@H]2CCC(N2)[C@H]1F (single isomer, unassigned) [Compound 40E2] | 59% | 72% | 5 | 0.01 to 15 nM | 7.33 ×10⁻⁶ cm/s | 37.1 ×10⁻⁶ cm/s | 16 to 50 nM |
| CN(c1cnc(-c2ccc(-c3cnn(CF)c3)cc2O)cn1)[C@@H]1CC2CC[C@H](N2)[C@@H]1F (single isomer, unassigned) [Compound 42E1] | 48% | 59% | 6 | 16 to 50 nM | 5.38 ×10⁻⁶ cm/s | 30.4 ×10⁻⁶ cm/s | 51 to 100 nM |
| CN(c1cnc(-c2ccc(-c3ccn(C)c(=O)c3)cc2O)cn1)[C@@H]1CC2CC[C@H](N2)[C@@H]1F (single isomer, unassigned) [Compound 45E1] | 88% | 85% | 37 | 101 to 500 nM | 1.3 ×10⁻⁶ cm/s | 47.6 ×10⁻⁶ cm/s | 51 to 100 nM |
| COc1cc(-c2ccc(-c3cnc(N(C)[C@@H]4CC5CC[C@H](N5)[C@@H]4F)cn3)c(O)c2)ncn1 (single isomer, unassigned) [Compound 48E1] | 21% | 44% | 2 | 16 to 50 nM | 4.15 ×10⁻⁶ cm/s | 6.9 ×10⁻⁶ cm/s | 101 to 500 nM |
| CNC(=O)/C=C/c1cc(O)c(-c2cnc(N(C)[C@H]3C[C@@H]4CCC(N4)[C@H]3F)cn2)cc1F (single isomer, unassigned) [Compound 60E2] | 89% | 89% | 24 | 0.01 to 15 nM | 2.48 ×10⁻⁶ cm/s | 60.1 ×10⁻⁶ cm/s | 51 to 100 nM |
| COc1cc(-c2ccc(-c3cnc(N(C)[C@@H]4CC5CC(F)(F)[C@@H](C4)N5)cn3)c(O)c2)cnn1 (single isomer, unassigned) [Compound 68E2] | 66% | 89% | 5 | 501 to 10000 nM | 9.81 ×10⁻⁶ cm/s | 47.2 ×10⁻⁶ cm/s | 501 to 10000 nM |
